Source: patent publication US20260176289A1, “SMALL MOLECULE INHIBITORS OF KRAS PROTEINS” (Merck Sharp & Dohme LLC, priority 2022, published 2026)
Read-outs that look alike come from different tables or passages of the source.

Assays:
KRAS-G12D = KRAS-G12D (Homo sapiens, UniProt P01116, G12D); test: SOS-catalyzed nucleotide exchange assay (Procedure A, TR-FRET), KRAS-G12D; format: biochemical; conditions: nucleotide exchange, read-out: KRAS G12D GNE IC50
Method in brief: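 Signal ratio (520/495 nm, excitation 340 nm) reports Bodipy-GDP retention on biotinylated RAS after SOS-catalyzed exchange with 3 mM GTP. SOS was 40 nM, except 160 nM for G12V. Room-temperature exchange lasted 60 min (90 min for G12V), following a 60 min compound preincubation.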

KRAS-WT = KRAS-WT (Homo sapiens, UniProt P01116); test: SOS-catalyzed nucleotide exchange assay (Procedure A, TR-FRET), KRAS-WT; format: biochemical; conditions: nucleotide exchange, read-out: KRAS WT GNE IC50
Chain of KRAS-WT (P01116 with tags, fused parts or gaps isoform P01116-2): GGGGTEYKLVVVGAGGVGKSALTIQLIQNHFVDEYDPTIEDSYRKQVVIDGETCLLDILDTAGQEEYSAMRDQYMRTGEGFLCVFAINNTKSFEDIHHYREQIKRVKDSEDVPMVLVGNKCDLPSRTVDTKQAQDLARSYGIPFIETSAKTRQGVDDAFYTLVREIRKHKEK
Method in brief: (§1)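 Biotinylated RAS (KRAS-G12C carries C51S/C80L/C118S; others WT background) preloaded with Bodipy-GDP plus Tb-streptavidin, preincubated with compound 60 min at RT, then human SOS and 3 mM GTP added. Final RAS/SOS: G12C 3 nM/40 nM, 60 min; WT 1 nM/40 nM, 60 min; G12V 1.25 nM/160 nM, 90 min; NRAS 1.25 nM/40 nM, 60 min. TR-FRET 520/495 ratio normalized to DMSO and saturating inhibitor; 10-point curves fit four-parameter logistic.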

KRAS-G13D = KRAS-G13D (Homo sapiens, UniProt P01116, G13D); test: SOS-catalyzed nucleotide exchange assay (Procedure A, TR-FRET), KRAS-G13D; format: biochemical; conditions: nucleotide exchange, Procedure A; read-out: KRAS G13D GNE IC50
Chain of KRAS-G13D (P01116 with tags, fused parts or gaps isoform P01116-2 G13D): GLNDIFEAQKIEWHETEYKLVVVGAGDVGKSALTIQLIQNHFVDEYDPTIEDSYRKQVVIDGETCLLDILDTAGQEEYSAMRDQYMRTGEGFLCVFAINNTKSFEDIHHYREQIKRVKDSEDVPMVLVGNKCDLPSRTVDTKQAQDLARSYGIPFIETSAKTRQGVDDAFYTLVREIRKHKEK

PANC08.13 cells = test: Cellular phospho-ERK assay, PANC08.13 cells (homozygous KRAS-G12D); format: cell-based; conditions: Homo sapiens, read-out: PANC-08.13 pERK IC50
Procedure: Procedure for Cellular Phospho-ERK Assay in KRAS Wild Type and Mutant (G12D, G12V) Cell Lines
MKN-1 cells (JCRB JCRB0252) containing amplified wild-type KRAS, were cultured in growth medium that contains RPMI 1640-GlutaMAX™-I (ThermoFisher Scientific 61870) containing 10% heat inactivated fetal bovine serum (ThermoFisher Scientific 10091148), 1 mM sodium pyruvate and 10 mM HEPES. PANC08.13 cells (ATCC® CRL-2551™), containing homozygous KRAS-G12D activating mutation, were cultured in growth medium made of RPMI1640-GlutaMAX™-I (ThermoFisher Scientific 61870) containing 15% heat inactivated fetal bovine serum (ThermoFisher Scientific 10091148)). AsPC-1 cells (ATCC® CRL-1682™), containing homozygous KRAS-G12D activating mutation, were cultured in T150 flask in growth medium (RPMI medium 1640-GlutaMAX™-I (ThermoFisher Scientific 61870) containing 10% fetal bovine serum (ThermoFisher Scientific 10091148)). SW620 cells (ATCC® […]), containing homozygous KRAS-G12V activating mutation, were cultured in growth medium that contains RPMI 1640-GlutaMAX™-I (ThermoFisher Scientific 61870) containing 10% heat inactivated fetal bovine serum (ThermoFisher Scientific 10091148).
Cells for the assay were harvested in growth medium after TrypLE (ThermoFisher scientific 12604021) digestion and were seeded in a 384-well collagen coated cell culture plate (Corning 356702) at a density of 10,000-15,000 cells/20 μL/well, and incubated at 37° C., 5% CO2 overnight. The compound (with 10 mM stock concentration) dose-response titrations were prepared [30 μM final ERK detection assay concentration and 1:3 dilutions, 10-point dose response] and appropriate amounts (270 nL) of test compounds were dispensed in a 384-well intermediate plate using an Echo 550 liquid handler. 30 μL/well of RPMI medium 1640-GlutaMAX™—I was added to the intermediate plate and the contents of the intermediate plate (10 μL/well) were then transferred to the 384-well collagen coated cell culture plate, which was incubated at 37° C., 5% CO2 for 2 hours. After removal of medium from the collagen coated cell culture plate, cells were lysed in lysis buffer from Alpha SureFire® Ultra™ Multiplex p-ERK and total ERK assay kit (PerkinElmer MPSU-PTERK) containing Halt™ Protease and Phosphatase inhibitor cocktail (ThermoFisher Scientific 78446) at room temperature with constant shaking at 300 rpm for 30 minutes. The cell lysates were then transferred to an OptiPlate-384 plate (PerkinElmer 6005620), and the phosphorylation of ERK (p-ERK) and total ERK levels were detected by Alpha SureFire® Ultra™ Multiplex p-EEK kit and total ERK assay kit (PerkinElmer MPSU-PTERK) following the manufacturer's protocol. Assay plates were read on a En Vision Multimode Plate Reader (PerkinElmer), and the ratio of p-ERK vs. total ERK in each well was used as the final readout. Dose response curves were analyzed using a 4-parameter logistic model to calculate IC50 values using Spotfire software.

KRAS-G12V = KRAS-G12V (Homo sapiens, UniProt P01116, G12V); test: SOS-catalyzed nucleotide exchange assay (Procedure A, TR-FRET), KRAS-G12V; format: biochemical; conditions: nucleotide exchange, read-out: KRAS G12V GNE IC50
Chain of KRAS-G12V (P01116 with tags, fused parts or gaps isoform P01116-2 G12V): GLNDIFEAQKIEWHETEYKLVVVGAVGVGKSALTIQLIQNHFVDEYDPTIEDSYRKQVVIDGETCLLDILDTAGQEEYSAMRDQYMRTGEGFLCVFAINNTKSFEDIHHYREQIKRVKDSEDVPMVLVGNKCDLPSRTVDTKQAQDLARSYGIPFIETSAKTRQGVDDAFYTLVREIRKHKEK
Method in brief: as §1

[1] = target: KRAS-G12C (C51S/C80L/C118S) (Homo sapiens, UniProt P01116, C118S/C51S/C80L/G12C); test: SOS-catalyzed nucleotide exchange assay (Procedure A, TR-FRET), KRAS-G12C; format: biochemical; conditions: nucleotide exchange, Procedure A; read-out: KRAS G12C GNE IC50
Chain of KRAS-G12C (C51S/C80L/C118S) (P01116 with tags, fused parts or gaps isoform P01116-2 G12C/C51S/C80L/C118S): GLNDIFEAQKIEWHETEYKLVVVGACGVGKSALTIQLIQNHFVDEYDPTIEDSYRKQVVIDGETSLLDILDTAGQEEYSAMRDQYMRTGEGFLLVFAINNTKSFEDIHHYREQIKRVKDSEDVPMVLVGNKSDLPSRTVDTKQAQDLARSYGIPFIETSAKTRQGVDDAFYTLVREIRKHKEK
Method in brief: as §1

AsPC-1 cells = test: Cellular phospho-ERK assay, AsPC-1 cells (homozygous KRAS-G12D); format: cell-based; conditions: Homo sapiens, ASPC1, 2 h, KRAS-G12D, 2 hours, read-out: AsPC1 pERK IC50
Method in brief: (§2)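 ERK phosphorylation relative to total ERK is the endpoint, detected by AlphaScreen-based SureFire multiplex following a 2-hour treatment at 37 °C. Compounds are titrated 1:3 over ten points from 30 μM.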

MKN-1 cells = test: Cellular phospho-ERK assay, MKN-1 cells (amplified wild-type KRAS); format: cell-based; conditions: Homo sapiens, amplified wild-type KRAS, 2 hours, read-out: MKN1 pERK IC50
Method in brief: as §2

SW620 cells = test: Cellular phospho-ERK assay, SW620 cells (homozygous KRAS-G12V); format: cell-based; conditions: Homo sapiens, SW-620, KRAS-G12V, 2 hours, read-out: SW620 pERK IC50
Method in brief: as §2

[2] = PANC-08-13, 2 hours compound incubation

Chain of KRAS-G12D (P01116 with tags, fused parts or gaps isoform P01116-2 G12D): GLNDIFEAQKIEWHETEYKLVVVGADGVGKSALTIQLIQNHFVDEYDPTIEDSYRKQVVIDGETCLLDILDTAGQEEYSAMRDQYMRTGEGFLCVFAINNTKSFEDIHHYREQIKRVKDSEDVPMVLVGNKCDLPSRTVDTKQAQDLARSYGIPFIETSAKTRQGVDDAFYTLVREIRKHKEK

IC50 (KRAS-G12D) [nM]	IC50 (KRAS-WT) [nM]	IC50 (KRAS-G13D) [nM]	IC50 (PANC08.13 cells; PANC-08-13, KRAS-G12D, 2 hours) [nM]	IC50 (KRAS-G12V) [nM]	IC50 [1] [nM]	IC50 (PANC08.13 cells; [2]) [nM]	IC50 (AsPC-1 cells) [nM]	Structure (SMILES)	IC50 (MKN-1 cells) [nM]	IC50 (SW620 cells) [nM]
1450	3070	2450	1800	1490	1480	–	–	Cc1cc(-c2nccc3c2sc2nc(OC[C@@]45CCCN4C[C@H](F)C5)nc(N4CCOC[C@@](C)(O)C4)c23)c2cn[nH]c2c1 [Ex-37, (S)-4-(2-(((2R,7aS)-2-fluorotetrahydro-1H-pyrrolizin-7a(5H)-yl)methoxy)-8-(6-methyl-1H-indazol-4-yl)pyrido[4′,3′:4,5]thieno[2,3-d]pyrimidin-4-yl)-6-methyl-1,4-oxazepan-6-ol]	–	–
360	1230	1100	562	574	456	–	–	Cc1cc2[nH]ncc2c(-c2cncc3c2sc2nc(OC[C@@]45CCCN4C[C@H](F)C5)nc(N4CCOC[C@@](C)(O)C4)c23)c1C(F)(F)F [Ex-273, (6S)-4-(2-(((2R,7aS)-2-fluorotetrahydro-1H-pyrrolizin-7a(5H)-yl)methoxy)-8-(6-methyl-5-(trifluoromethyl)-1H-indazol-4-yl)pyrido[3′,4′:4,5]thieno[2,3-d]pyrimidin-4-yl)-6-methyl-1,4-oxazepan-6-ol]	–	–
1420	1810	592	3750	1020	300	–	–	C#Cc1c(F)ccc2cc(N)nc(-c3nccc4c5c(N6CCOC[C@@](C)(O)C6)nc(OC[C@@]67CCCN6C[C@H](F)C7)nc5n(C)c34)c12 [Ex-17, (S)-4-(8-(3-amino-8-ethynyl-7-fluoroisoquinolin-1-yl)-2-(((2R,7aS)-2-fluorotetrahydro-1H-pyrrolizin-7a(5H)-yl)methoxy)-9-methyl-9H-pyrido[4′,3′:4,5]pyrrolo[2,3-d]pyrimidin-4-yl)-6-methyl-1,4-oxazepan-6-ol]	–	–
1500	2250	2090	1430	1650	1190	–	–	Cc1cc2[nH]nc(C)c2c(-c2nccc3c4c(N5CCOC[C@@](C)(O)C5)nc(OC[C@@]56CCCN5C[C@H](F)C6)nc4n(C)c23)c1C(F)F (single isomer, unassigned) [Ex-8]	–	–
261	494	1090	900	440	175	–	–	Cc1cc2[nH]ncc2c(-c2nccc3c2sc2nc(OC[C@@]45CCCN4C[C@H](F)C5)nc(N4CCOC[C@@](C)(O)C4)c23)c1C#N [Ex-34, 4-(2-(((2R,7aS)-2-fluorotetrahydro-1H-pyrrolizin-7a(5H)-yl)methoxy)-4-((S)-6-hydroxy-6-methyl-1,4-oxazepan-4-yl)pyrido[4′,3′:4,5]thieno[2,3-d]pyrimidin-8-yl)-6-methyl-1H-indazole-5-carbonitrile]	–	–
2270	725	813	–	428	78	3930	–	Cc1cc2[nH]ncc2c(-c2nccc3c2sc2nc(OC[C@@]45CCCN4C[C@H](F)C5)nc(N4CCOC(CO)C4)c23)c1C(F)(F)F (stereo partly drawn) [Ex-180, (4-(2-(((2R,7aS)-2-fluoro-tetrahydro-1H-pyrrolizin-7a(5H)-yl)methoxy)-8-(6-methyl-5-(trifluorometh-yl)-1H-indazol-4-yl)pyrido [4′,3′:4,5]thieno[2,3-d]pyr-imidin-4-yl)morpholin-2-yl)methanol]	–	–
120	250	110	–	130	47.1	279	–	C[C@@]1(O)COCCN(c2nc(OC[C@@]34CCCN3C[C@H](F)C4)nc3sc4c(-c5c(C(F)F)c(Cl)cc6[nH]ncc56)nccc4c23)C1 [Ex-133, (6S)-4-(8-(6-chloro-5-(difluoromethyl)-1H-indazol-4-yl)-2-(((2R,7aS)-2-fluoro-tetrahydro-1H-pyr-rolizin-7a(5H)-yl)-methoxy)pyrido [4′,3′:4,5]thieno [2,3-d]pyrimidin-4-yl)-6-methyl-1,4-oxazepan-6-ol]	–	–
906	1280	1060	–	657	241	1700	–	C#Cc1c(F)ccc2nc(N)cc(-c3nccc4c3sc3nc(OC[C@@]56CCCN5C[C@H](F)C6)nc(N5CCOC[C@@](C)(O)C5)c34)c12 [Ex-178, (S)-4-(8-(2-amino-5-ethynyl-6-fluoroquinolin-4-yl)-2-(((2R,7aS)-2-fluorotetrahydro-1H-pyrrolizin-7a(5H)-yl)methoxy)pyrido[4′,3′: 4.5]thieno[2,3-d]pyrimidin-4-yl)-6-methyl-1,4-oxazepan-6-ol]	–	–
153	377	210	306	207	116	–	–	Cc1cc2[nH]ncc2c(-c2nccc3c2oc2nc(OC[C@]4(CN(C)C)CC4(F)F)nc(N4CCOC[C@@](C)(O)C4)c23)c1C(F)(F)F [Ex-291, (6S)-4-(2-(((R)-1-((dimethylamino)methyl)-2.2-difluorocyclopropyl)meth-oxy)-8-(6-methyl-5-(trifluoromethyl)-1H-indazol-4-yl)pyrido[4′,3′:4,5]furo[2,3-d]pyrimidin-4-yl)-6-methyl-1,4-oxazepan-6-ol]	–	–
59	455	–	1860	34.4	25.3	–	3260	Cc1cc2[nH]ncc2c(-c2nccc3c4c(N5CCCC6(CC(=O)N6)C5)nc(OC[C@@]56CCCN5C[C@H](F)C6)nc4n(C)c23)c1C(F)(F)F (single isomer, unassigned) [Ex-21]	–	–

Structure (SMILES)	IC50 (KRAS-G12D) [nM]	IC50 (KRAS-WT) [nM]	IC50 (KRAS-G13D) [nM]	IC50 (PANC08.13 cells; PANC-08-13, KRAS-G12D, 2 hours) [nM]	IC50 (KRAS-G12V) [nM]	IC50 [1] [nM]	IC50 (PANC08.13 cells; [2]) [nM]	IC50 (AsPC-1 cells) [nM]	IC50 (MKN-1 cells) [nM]	IC50 (SW620 cells) [nM]
Cc1cc2[nH]ncc2c(-c2nccc3c4c(N5CCOC[C@@](C)(O)C5)nc(OC[C@]5(CN(C)C)CC5(F)F)nc4n(C)c23)c1C(F)(F)F [Ex-20, (6S)-4-(2-(((R)-1-((dimethylamino)methyl)-2,2-difluorocyclopropyl)methoxy)-9-methyl-8-(6-methyl-5-(trifluoromethyl)-1H-indazol-4-yl)-9H-pyrido[4′,3′:4,5]pyrrolo[2,3-d]pyrimidin-4-yl)-6-methyl-1,4-oxazepan-6-ol]	37.9	125	–	80.6	62.9	–	–	–	150	539
